{"source": "patent US20200038423A1", "about": "“USE OF 6-O-(C8-C20 ALKYL ESTER) OF 1-O-(C1-C6 ALKYL)-ß-D-GLUCOSIDE AS AN AGENT FOR PROTECTING THE SKIN” (PIERRE FABRE DERMO-COSMETIQUE, priority 2016, published 2020)", "assay_type_in_all_cases": "cell-based", "key": {"SULT2B1": {"test_system": "SULT2B1", "test": "RT-qPCR, modulation of genes involved in keratinocyte differentiation and hydration: SULT2B1", "details": "CaCl2 1.5 mM; normal human keratinocytes, 48 h; lipid differentiation marker", "method": "(§1) Normal human keratinocytes were incubated for 48 h with 1-O-n-butyl-β-D-glucoside 6-O-lauroyl. Its effects were evaluated using the RT-qPCR technique with the analysis of 6 target genes, chosen for their importance in keratinocyte differentiation and hydration."}, "FABP5": {"test_system": "FABP5", "test": "RT-qPCR, modulation of genes involved in keratinocyte differentiation and hydration: FABP5", "details": "CaCl2 1.5 mM; normal human keratinocytes, 48 h; lipid differentiation marker", "method": "as §1"}, "DEGS2": {"test_system": "DEGS2", "test": "RT-qPCR, modulation of genes involved in keratinocyte differentiation and hydration: DEGS2", "details": "CaCl2 1.5 mM; normal human keratinocytes, 48 h; lipid differentiation marker", "method": "as §1"}, "KLK7": {"test_system": "KLK7", "test": "RT-qPCR, modulation of genes involved in keratinocyte differentiation and hydration: KLK7", "details": "CaCl2 1.5 mM; normal human keratinocytes, 48 h; protein differentiation marker", "method": "as §1"}, "TGM1": {"test_system": "TGM1", "test": "RT-qPCR, modulation of genes involved in keratinocyte differentiation and hydration: TGM1", "details": "CaCl2 1.5 mM; normal human keratinocytes, 48 h; protein differentiation marker", "method": "as §1"}, "CASP14": {"test_system": "CASP14", "test": "RT-qPCR, modulation of genes involved in keratinocyte differentiation and hydration: CASP14", "details": "CaCl2 1.5 mM; normal human keratinocytes, 48 h; protein differentiation marker", "method": "as §1"}, "[1]": {"test_system": "Normal human keratinocytes", "test": "Keratinocyte differentiation judged from RT-qPCR of 6 target genes", "details": "20 μM, incubation for 48 h", "method": "as §1"}, "[2]": {"test_system": "primary normal human keratinocytes", "test": "Oris Cell Migration Assay, keratinocyte migration", "details": "for % Stim (% stimulation of keratinocyte migration): 24 h migration", "method": "Oris™ Cell Migration Assays were used to estimate cell migration.\nPrimary normal human keratinocytes isolated from tissues extracted during cosmetic surgery were seeded on 96-well plates and cultured in KSFM supplemented with 25 μg/ml bovine pituitary extract (BPE, Invitrogen) and 0.2 ng/ml EGF (Invitrogen). After 24 h of incubation, the culture medium is replaced with KSM without supplement. After 24 h of incubation, the Oris™ stoppers as well as the test compounds or positive controls are removed. The latter are 5 ng/ml TGF-β, 30 ng/ml EGF, or KSM supplemented with BPE and EGF. Incubation continues for the next 24 h to allow migration. At the end of incubation, Calcein AM dye, which penetrates the cells, is added to the wells and is converted to fluorescence which is then quantified in a detection zone using a monochromatic microplate (Clariostar, BMG Labteck).\nThe compound tested is 1-O-n-butyl-β-D-glucoside 6-O-lauroyl, it is solubilized in DMSO at a concentration of 100 mM. The compound is tested at 2, 10 and 20 μM. The effect of DMSO at the tested concentrations has no effect on keratinocyte migration. The experiments are repeated on 2 donors with 8 wells for each condition.\nThe quantification of the fluorescence emitted in the detection zone is proportional to keratinocyte migration. Statistical analyses (Mann-Whitney test) are used to analyze the effect of the compound. After fluorescence quantification, the cells were rapidly fixed in 4% paraformaldehyde before eosin-hematoxylin staining and observed under a microscope."}}}
{"molecule": "[Ca+2].[Cl-].[Cl-]", "note": "[CaCl2]", "values": [{"measurement": "SULT2B1 expression, Mean (% Control)", "setting": "SULT2B1", "result": 1169, "unit": "% Control"}, {"measurement": "FABP5 expression, Mean (% Control)", "setting": "FABP5", "result": 501, "unit": "% Control"}, {"measurement": "DEG S2 expression, Mean (% Control)", "setting": "DEGS2", "result": 217, "unit": "% Control"}, {"measurement": "KLK7 expression, Mean (% Control)", "setting": "KLK7", "result": 994, "unit": "% Control"}, {"measurement": "TGM1 expression, Mean (% Control)", "setting": "TGM1", "result": 910, "unit": "% Control"}, {"measurement": "CASP14 expression, Mean (% Control)", "setting": "CASP14", "result": 127, "unit": "% Control"}]}
{"molecule": "CCCCCCCCCCCC(=O)OC[C@H]1O[C@@H](OCCCC)[C@H](O)[C@@H](O)[C@@H]1O", "note": "[β-LBG, 1-O-n-butyl-β-D-glucoside 6-O-lauroyl]", "values": [{"measurement": "keratinocyte differentiation", "setting": "[1]", "result": "induces reproducible keratinocyte differentiation"}, {"measurement": "keratinocyte migration", "setting": "[2]; both donors tested, at either 10 μM or 20 μM", "result": "stimulates keratinocyte migration"}, {"measurement": "migration of normal human keratinocytes", "setting": "[2]; concentrations of 10 to 20 μM", "result": "significantly stimulates"}, {"measurement": "% Stim (% stimulation of keratinocyte migration)", "setting": "[2]; donor 1, 2 μM", "result": "−30", "unit": "%"}, {"measurement": "% Stim (% stimulation of keratinocyte migration)", "setting": "[2]; donor 1, 10 μM", "result": 41, "unit": "%"}, {"measurement": "% Stim (% stimulation of keratinocyte migration)", "setting": "[2]; donor 1, 20 μM", "result": 104, "unit": "%"}, {"measurement": "% Stim (% stimulation of keratinocyte migration)", "setting": "[2]; donor 2, 2 μM", "result": 46, "unit": "%"}, {"measurement": "% Stim (% stimulation of keratinocyte migration)", "setting": "[2]; donor 2, 10 μM", "result": 63, "unit": "%"}, {"measurement": "% Stim (% stimulation of keratinocyte migration)", "setting": "[2]; donor 2, 20 μM", "result": 21, "unit": "%"}]}
{"molecule": "EGF: positive control of migration, 30 ng/ml EGF [reference compound]", "values": [{"measurement": "% Stim (% stimulation of keratinocyte migration)", "setting": "[2]; donor 1, 30 ng/ml", "result": 35, "unit": "%"}, {"measurement": "% Stim (% stimulation of keratinocyte migration)", "setting": "[2]; donor 2, 30 ng/ml", "result": 87, "unit": "%"}]}
